Laboratory results published in patent EP4806899A1, “FUSED RING DERIVATIVE, PREPARATION METHOD THEREFOR AND USE THEREOF IN MEDICINE” (Shanghai Qilu Pharmaceutical Research and Development …, priority 2023, dated 2025).
Values belong to the compound of their own block, whether it stands above or below them.

Assays:
[1] = target: T1, human CYP11B2 enzyme (Homo sapiens, UniProt P19099); assay: Enzyme inhibition activity assay in G402 cells stably expressing human CYP11B2 (aldosterone production from 11-DOC, LC/MS); format: cell-based; settings: 1 µM 11-DOC, 16 hours, aldosterone detected
T1 construct: the ORF of human CYP11B1 or CYP11B2 were transfected into G402 cells; expressed in transfected cells
T1 sequence (P19099 25-503): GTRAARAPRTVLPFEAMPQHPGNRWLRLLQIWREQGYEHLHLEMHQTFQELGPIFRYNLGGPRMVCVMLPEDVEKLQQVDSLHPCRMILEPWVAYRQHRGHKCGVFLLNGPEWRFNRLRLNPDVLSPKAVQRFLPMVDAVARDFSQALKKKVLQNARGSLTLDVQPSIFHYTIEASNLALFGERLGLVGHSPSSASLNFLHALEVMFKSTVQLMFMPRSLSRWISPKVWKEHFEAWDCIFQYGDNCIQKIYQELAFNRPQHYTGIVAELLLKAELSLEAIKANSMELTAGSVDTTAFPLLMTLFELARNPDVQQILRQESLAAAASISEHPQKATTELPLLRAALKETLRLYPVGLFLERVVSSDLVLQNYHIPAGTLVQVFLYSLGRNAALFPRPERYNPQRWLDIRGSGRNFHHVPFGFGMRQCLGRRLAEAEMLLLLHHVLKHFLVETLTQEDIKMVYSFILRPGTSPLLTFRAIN
Outline: (§1)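 G402 cells stably expressing human CYP11B2 or CYP11B1, preincubated 1 h with inhibitor in DMEM/F12 plus 2.5% charcoal-stripped FCS, then 16 h with 1 µM 11-DOC or 1 µM 11-DC. Aldosterone or cortisol quantified by LC/MS; IC50 from four-parameter logistic fit versus uninhibited control.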

[2] = target: T2, human CYP11B1 enzyme (Homo sapiens, UniProt P15538); assay: Enzyme inhibition activity assay in G402 cells stably expressing human CYP11B1 (cortisol production from 11-DC, LC/MS); format: cell-based; settings: 1 µM 11-DC, 16 hours, cortisol detected
T2 construct: the ORF of human CYP11B1 or CYP11B2 were transfected into G402 cells; expressed in transfected cells
T2 sequence (P15538 25-503): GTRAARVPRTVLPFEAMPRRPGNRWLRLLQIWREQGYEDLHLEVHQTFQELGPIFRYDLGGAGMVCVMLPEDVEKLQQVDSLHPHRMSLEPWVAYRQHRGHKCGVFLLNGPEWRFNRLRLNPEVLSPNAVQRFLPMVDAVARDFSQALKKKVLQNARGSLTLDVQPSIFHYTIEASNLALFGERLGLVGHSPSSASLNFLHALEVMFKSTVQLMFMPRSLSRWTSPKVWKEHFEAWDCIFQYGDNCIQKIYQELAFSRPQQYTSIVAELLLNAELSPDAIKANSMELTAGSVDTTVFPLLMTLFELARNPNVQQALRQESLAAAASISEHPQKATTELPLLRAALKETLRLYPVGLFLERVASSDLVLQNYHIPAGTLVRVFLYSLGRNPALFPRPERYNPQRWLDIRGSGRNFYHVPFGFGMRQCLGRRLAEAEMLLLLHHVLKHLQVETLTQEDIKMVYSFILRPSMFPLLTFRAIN
Outline: as §1

[3] = Pharmacokinetic determination in monkeys after gavage administration (P.O.); format: in vivo, Cynomolgus monkeys (Macaca fascicularis); settings: cynomolgus monkey, po, 1 mg/kg, plasma
Procedure: (§2) Cynomolgus monkeys (Macaca fascicularis) were used as test animals to study the pharmacokinetic behavior of the compounds of the present disclosure in plasma following gavage administration (P.O.). Plasma samples were collected at specific time points, compound concentrations in plasma were detected by LC-MS/MS, and pharmacokinetic parameters were calculated to reflect the pharmacokinetics in cynomolgus monkeys.
Cynomolgus monkeys, male, Ankaiyibo (Zhanjiang) Biotechnology Co., Ltd.
After administration to cynomolgus monkeys, venous blood samples of 0.3 mL were collected at 0.25, 0.5, 1, 2, 4, 8, and 24 hours and placed in EDTA-K2 test tubes. Plasma was separated by centrifugation at 4 °C, 4000 g for 5 minutes and stored at -80 °C.
• 1) 50 µL of plasma sample was precipitated by adding 200 µL of acetonitrile, vortex mixed, and centrifuged for 15 minutes. • 2) The processed supernatant was diluted with water and analyzed by LC/MS/MS to determine the concentration of the test compound.
(§3) Pharmacokinetic parameters were calculated using WinNonlin 8.3. Cmax represents the maximum plasma concentration, T1/2 represents the terminal elimination half-life, MRTInf represents the mean residence time, and AUC represents the area under the plasma concentration-time curve. Table 6 Pharmacokinetic Parameters of the Compounds of the Present Disclosure in Monkeys

[4] = Pharmacokinetic determination in mice after gavage administration (P.O.); format: in vivo; settings: male, CD-1, mouse, po, 10 mg/kg, plasma
Procedure: as §2, with “Mice and rats” for “Cynomolgus monkeys (Macaca fascicularis)”, “evaluate” for “reflect”, “pharmacokinetics.” for “pharmacokinetics in cynomolgus monkeys.”
• Mice, CD-1, male, Zhejiang Vital River Laboratory Animal Technology Co., Ltd. • Rats, Sprague-Dawley, male, Zhejiang Vital River Laboratory Animal Technology Co., Ltd., Shanghai Jihui Experimental Animal Breeding Co., Ltd.
After administration to mice and rats, venous blood samples of 0.03 mL and 0.2 mL, respectively, were collected at 0.0833 (IV), 0.25, 0.5, 1, 2, 4, 8, and 24 hours and placed in EDTA-K2 test tubes. Plasma was separated by centrifugation at 4 °C, 4000 g for 5 minutes and stored at -80 °C.
• 1) 10 µL of plasma sample was precipitated by adding 200 µL of acetonitrile, vortex mixed, and centrifuged for 15 minutes. • 2) The processed supernatant was diluted with water and analyzed by LC/MS/MS to determine the concentration of the test compound.
as §3, with “8.3. The pharmacokinetic parameters for mice P.O. are shown in Table 4, and for rats P.O. in Table 5.” for “8.3.”, “4” for “6”, “Mice” for “Monkeys”

[5] = in vivo; settings: male, Sprague-Dawley, rat, plasma, po, 10 mg/kg
Procedure: Mice and rats were used as test animals to study the pharmacokinetic behavior of the compounds of the present disclosure in plasma following gavage administration (P.O.). Plasma samples were collected at specific time points, compound concentrations in plasma were detected by LC-MS/MS, and pharmacokinetic parameters were calculated to evaluate the pharmacokinetics.
Pharmacokinetic parameters were calculated using WinNonlin 8.3. […] Cmax represents the maximum plasma concentration, T1/2 represents the terminal elimination half-life, MRTInf represents the mean residence time, and AUC represents the area under the plasma concentration-time curve.

[6] = added to existing treatment; within 3 months of treatment; cited from earlier work

IC50 [1]: 0.0018 µM | IC50 [2]: 0.316 µM | Cmax ([3]; in vivo): 3.28 µM | MRT inf ([3]; in vivo): 9.14 h | half-life ([3]; in vivo): 8.48 h | AUC(0-t) at 24 h ([3]; in vivo, read-out: AUC0-24): 29.1 µM·h
SMILES: CCC(=O)N[C@@H]1CCOc2c(-c3ccc4c(c3)cc(C#N)n4C)cncc21 [Compound A10-P2]

Cmax [4]: 12.2 µM | MRT inf [4]: 3.59 h | half-life [4]: 1.86 h | AUC(0-t) ([4]; read-out: AUC0-24): 57.3 µM·h | Cmax ([3]; male): 0.834 µM | AUC(0-t) ([3]; male, read-out: AUC0-24): 6 µM·h | AUC(0-t) [5]: 109 µM·h | Cmax [5]: 11.4 µM | MRT inf [5]: 6.41 h | half-life [5]: 4.31 h
SMILES: CCC(=O)N[C@@H]1CCCc2c(-c3ccc4c(c3)CCC(=O)N4C)cncc21 [Control Compound, reference compound]

SMILES: CC(=O)S[C@@H]1CC2=CC(=O)CC[C@]2(C)[C@H]2CC[C@@]3(C)[C@@H](CC[C@@]34CCC(=O)O4)[C@H]12 [spironolactone]
patients with resistant hypertension achieving effective control of blood pressure (systolic blood pressure <135 mm Hg) [6]: 60%
